Test results as given in patent US10251395B2, “Substituted furano-/thienocycloalkylamino-2-pyrimidine derivatives and use thereof for controlling undesired plant growth” (Bayer CropScience Aktiengesellschaft, priority 2015, dated 2019).

How the values were obtained:
[1] = tested on: Lolium multiflorum; experiment: Pre-emergence herbicidal effect; assay type: in vivo; details: Dosage 320 g/ha, scored visually after 3 weeks
Procedure, shortened: (§1)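 Sowing in sandy loam, covering with soil, then surface application of compound as aqueous suspension or emulsion (600 to 800 L/ha, 0.2% wetting agent). Greenhouse growth under good conditions; visual % damage scored at 3 weeks versus untreated pots.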

[2] = tested on: Polygonum convolvulus; experiment: Pre-emergence herbicidal effect; assay type: in vivo; details: scored visually after 3 weeks
Procedure, shortened: as §1

[3] = tested on: Echinochloa crus-galli; experiment: Pre-emergence herbicidal effect; assay type: in vivo; details: scored visually after 3 weeks
Procedure, shortened: as §1

[4] = tested on: Viola tricolor; experiment: Pre-emergence herbicidal effect; assay type: in vivo; details: scored visually after 3 weeks
Procedure, shortened: as §1

[5] = tested on: Alopecurus myosuroides; experiment: Pre-emergence herbicidal effect; assay type: in vivo; details: scored visually after 3 weeks
Procedure, shortened: as §1

[6] = tested on: Ipomoea purpurea; experiment: Pre-emergence herbicidal effect; assay type: in vivo; details: scored visually after 3 weeks
Procedure, shortened: as §1

[7] = tested on: Abutilon theophrasti; experiment: Pre-emergence herbicidal effect; assay type: in vivo; details: scored visually after 3 weeks
Procedure, shortened: as §1

[8] = tested on: Amaranthus retroflexus; experiment: Pre-emergence herbicidal effect; assay type: in vivo; details: scored visually after 3 weeks
Procedure, shortened: as §1

[9] = tested on: Setaria viridis; experiment: Pre-emergence herbicidal effect; assay type: in vivo; details: scored visually after 3 weeks
Procedure, shortened: as §1

[10] = tested on: Veronica persica; experiment: Pre-emergence herbicidal effect; assay type: in vivo; details: scored visually after 3 weeks
Procedure, shortened: as §1

[11] = tested on: Matricaria inodora; experiment: Pre-emergence herbicidal effect; assay type: in vivo; details: scored visually after 3 weeks
Procedure, shortened: as §1

[12] = tested on: Stellaria media; experiment: Pre-emergence herbicidal effect; assay type: in vivo; details: scored visually after 3 weeks
Procedure, shortened: as §1

[13] = tested on: Cyperus esculentus; experiment: Pre-emergence herbicidal effect; assay type: in vivo; details: scored visually after 3 weeks
Procedure, shortened: as §1

[14] = tested on: Viola tricolor; experiment: Post-emergence herbicidal effect; assay type: in vivo; details: assessed visually after about 3 weeks vs untreated controls
Procedure, shortened: (§2)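 Greenhouse weeds grown in sandy loam were sprayed at the one-leaf stage, 2–3 weeks after sowing, with WP or EC formulations in 600–800 L/ha water plus 0.2% wetting agent. Damage was scored visually after about 3 weeks as percent activity relative to untreated controls, where 100% means the plants died.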

[15] = tested on: Ipomoea purpurea; experiment: Post-emergence herbicidal effect; assay type: in vivo; details: assessed visually after about 3 weeks vs untreated controls
Procedure, shortened: as §2

[16] = tested on: Abutilon theophrasti; experiment: Post-emergence herbicidal effect; assay type: in vivo; details: assessed visually after about 3 weeks vs untreated controls
Procedure, shortened: as §2

[17] = tested on: Amaranthus retroflexus; experiment: Post-emergence herbicidal effect; assay type: in vivo; details: assessed visually after about 3 weeks vs untreated controls
Procedure, shortened: as §2

[18] = tested on: Veronica persica; experiment: Post-emergence herbicidal effect; assay type: in vivo; details: assessed visually after about 3 weeks vs untreated controls
Procedure, shortened: as §2

[19] = tested on: Matricaria inodora; experiment: Post-emergence herbicidal effect; assay type: in vivo; details: assessed visually after about 3 weeks vs untreated controls
Procedure, shortened: as §2

[20] = tested on: Stellaria media; experiment: Post-emergence herbicidal effect; assay type: in vivo; details: assessed visually after about 3 weeks vs untreated controls
Procedure, shortened: as §2

[21] = tested on: Avena fatua; experiment: Pre-emergence herbicidal effect; assay type: in vivo; details: scored visually after 3 weeks
Procedure, shortened: as §1

[22] = tested on: Echinochloa crus-galli; experiment: Post-emergence herbicidal effect; assay type: in vivo; details: 320 g/ha, assessed visually after about 3 weeks vs untreated controls
Procedure, shortened: as §2

[23] = tested on: Setaria viridis; experiment: Post-emergence herbicidal effect; assay type: in vivo; details: assessed visually after about 3 weeks vs untreated controls
Procedure, shortened: as §2

[24] = logP (HCOOH); assay type: physicochemical; details: HCOOH
From the text: Table 2 (physicochemical characterization of selected synthesis examples)

[25] = tested on: Polygonum convolvulus; experiment: Post-emergence herbicidal effect; assay type: in vivo; details: 320 g/ha, assessed visually after about 3 weeks vs untreated controls
Procedure, shortened: as §2

| Compound | ECHCG pre-emergence efficacy (herbicidal activity) ([3]; Dosage 320 g/ha) | VIOTR pre-emergence efficacy (herbicidal activity) ([4]; Dosage 80 g/ha) | VIOTR pre-emergence efficacy (herbicidal activity) ([4]; Dosage 320 g/ha) | ALOMY pre-emergence efficacy (herbicidal activity) ([5]; Dosage 320 g/ha) | PHBPU pre-emergence efficacy (herbicidal activity) ([6]; Dosage 320 g/ha) | SETVI pre-emergence efficacy (herbicidal activity) ([9]; Dosage 320 g/ha) | VERPE pre-emergence efficacy (herbicidal activity) ([10]; Dosage 80 g/ha) | VERPE pre-emergence efficacy (herbicidal activity) ([10]; Dosage 320 g/ha) | MATIN pre-emergence efficacy (herbicidal activity) ([11]; Dosage 80 g/ha) | MATIN pre-emergence efficacy (herbicidal activity) ([11]; Dosage 320 g/ha) | STEME pre-emergence efficacy (herbicidal activity) ([12]; Dosage 80 g/ha) | STEME pre-emergence efficacy (herbicidal activity) ([12]; Dosage 320 g/ha) | CYPES pre-emergence efficacy (herbicidal activity) ([13]; Dosage 320 g/ha) | post-emergence efficacy VIOTR ([14]; 80 g/ha) | post-emergence efficacy VIOTR ([14]; 320 g/ha) | post-emergence efficacy AMARE ([17]; 80 g/ha) | post-emergence efficacy AMARE ([17]; 320 g/ha) | post-emergence efficacy VERPE ([18]; 320 g/ha) | post-emergence efficacy STEME ([20]; 80 g/ha) | post-emergence efficacy STEME ([20]; 320 g/ha) | other results |
| --- | --- | --- | --- | --- | --- | --- | --- | --- | --- | --- | --- | --- | --- | --- | --- | --- | --- | --- | --- | --- | --- |
| CC(=NO)c1cnc(NC2CCCc3sc(C)cc32)nc1N (stereo not drawn) [compound 286] | 100% | 100% | 100% | 60% | 50% | 100% | 100% | 100% | 80% | 100% | 60% | 100% | 70% | 90% | 90% | 90% | 90% | 100% | 70% | 100% | LOLMU pre-emergence efficacy (herbicidal activity) [1]: 80%; POLCO pre-emergence efficacy (herbicidal activity) ([2]; Dosage 320 g/ha): 100%; PHBPU pre-emergence efficacy (herbicidal activity) ([6]; Dosage 80 g/ha): 100%; ABUTH pre-emergence efficacy (herbicidal activity) ([7]; Dosage 80 g/ha): 70%; ABUTH pre-emergence efficacy (herbicidal activity) ([7]; Dosage 320 g/ha): 60%; AMARE pre-emergence efficacy (herbicidal activity) ([8]; Dosage 320 g/ha): 100%; post-emergence efficacy PHBPU ([15]; 80 g/ha): 70%; post-emergence efficacy PHBPU ([15]; 320 g/ha): 70%; post-emergence efficacy ABUTH ([16]; 80 g/ha): 90%; post-emergence efficacy ABUTH ([16]; 320 g/ha): 90%; post-emergence efficacy MATIN ([19]; 80 g/ha): 80%; post-emergence efficacy MATIN ([19]; 320 g/ha): 90% |
| Cc1cc2c(s1)CCCC2Nc1ncc(C#N)c(N)n1 (racemic) [compound 52] | 90% | – | – | 80% | 100% | 100% | 100% | 100% | 100% | 100% | 100% | 100% | 100% | 90% | 90% | 100% | 100% | 90% | 100% | 100% | AVEFA pre-emergence efficacy (herbicidal activity) ([21]; Dosage 80 g/ha): 90%; AVEFA pre-emergence efficacy (herbicidal activity) ([21]; Dosage 320 g/ha): 90%; POLCO pre-emergence efficacy (herbicidal activity) ([2]; Dosage 80 g/ha): 100%; POLCO pre-emergence efficacy (herbicidal activity) ([2]; Dosage 320 g/ha): 100%; ECHCG pre-emergence efficacy (herbicidal activity) ([3]; Dosage 80 g/ha): 80%; ALOMY pre-emergence efficacy (herbicidal activity) ([5]; Dosage 80 g/ha): 70%; ABUTH pre-emergence efficacy (herbicidal activity) ([7]; Dosage 80 g/ha): 90%; ABUTH pre-emergence efficacy (herbicidal activity) ([7]; Dosage 320 g/ha): 100%; AMARE pre-emergence efficacy (herbicidal activity) ([8]; Dosage 80 g/ha): 100%; AMARE pre-emergence efficacy (herbicidal activity) ([8]; Dosage 320 g/ha): 100%; SETVI pre-emergence efficacy (herbicidal activity) ([9]; Dosage 80 g/ha): 80%; CYPES pre-emergence efficacy (herbicidal activity) ([13]; Dosage 80 g/ha): 100%; post-emergence efficacy ECHCG [22]: 100%; post-emergence efficacy SETVI ([23]; 80 g/ha): 60%; post-emergence efficacy SETVI ([23]; 320 g/ha): 80%; post-emergence efficacy VERPE ([18]; 80 g/ha): 90%; post-emergence efficacy MATIN ([19]; 80 g/ha): 60%; post-emergence efficacy MATIN ([19]; 320 g/ha): 60% |
| CS(=O)(=O)c1cnc(N[C@@H]2CCCc3sccc32)nc1N [compound 24] | 100% | 100% | 100% | 100% | 100% | 100% | 100% | 100% | 100% | 100% | 100% | 100% | 60% | 90% | 100% | 90% | 90% | 100% | 80% | 100% | logP (HCOOH) [24]: solid; logP (HCOOH): 1.82; 1H NMR (CDCl3, 400 MHZ, δ in ppm): 1.85 (m, 3H, 3H; LOLMU pre-emergence efficacy (herbicidal activity) [1]: 100%; AVEFA pre-emergence efficacy (herbicidal activity) ([21]; Dosage 320 g/ha): 90%; POLCO pre-emergence efficacy (herbicidal activity) ([2]; Dosage 80 g/ha): 100%; POLCO pre-emergence efficacy (herbicidal activity) ([2]; Dosage 320 g/ha): 100%; ECHCG pre-emergence efficacy (herbicidal activity) ([3]; Dosage 80 g/ha): 100%; ABUTH pre-emergence efficacy (herbicidal activity) ([7]; Dosage 320 g/ha): 100%; AMARE pre-emergence efficacy (herbicidal activity) ([8]; Dosage 80 g/ha): 100%; AMARE pre-emergence efficacy (herbicidal activity) ([8]; Dosage 320 g/ha): 100%; SETVI pre-emergence efficacy (herbicidal activity) ([9]; Dosage 80 g/ha): 90%; post-emergence efficacy POLCO [25]: 80%; post-emergence efficacy PHBPU ([15]; 80 g/ha): 80%; post-emergence efficacy PHBPU ([15]; 320 g/ha): 100%; post-emergence efficacy ABUTH ([16]; 80 g/ha): 100%; post-emergence efficacy ABUTH ([16]; 320 g/ha): 100%; post-emergence efficacy SETVI ([23]; 320 g/ha): 80%; post-emergence efficacy VERPE ([18]; 80 g/ha): 90%; post-emergence efficacy MATIN ([19]; 80 g/ha): 80%; post-emergence efficacy MATIN ([19]; 320 g/ha): 100% |
| CC(=O)c1cnc(NC2CCCc3sccc32)nc1N (stereo not drawn) [compound 301] | 100% | 100% | 100% | 80% | 100% | 100% | 100% | 100% | 100% | 100% | 100% | 100% | 70% | 80% | 90% | 80% | 80% | 100% | 60% | 60% | LOLMU pre-emergence efficacy (herbicidal activity) [1]: 100%; ECHCG pre-emergence efficacy (herbicidal activity) ([3]; Dosage 80 g/ha): 70%; PHBPU pre-emergence efficacy (herbicidal activity) ([6]; Dosage 80 g/ha): 100%; SETVI pre-emergence efficacy (herbicidal activity) ([9]; Dosage 80 g/ha): 100%; post-emergence efficacy PHBPU ([15]; 320 g/ha): 90%; post-emergence efficacy MATIN ([19]; 320 g/ha): 60% |
| Cc1cc2c(s1)CCCC2Nc1nc(N)c(S(C)(=O)=O)c(C(F)F)n1 (racemic) [compound 287] | – | 90% | 100% | – | 100% | – | 100% | 100% | 100% | 100% | 90% | 100% | 100% | 100% | 100% | 90% | 100% | 100% | 80% | 100% | PHBPU pre-emergence efficacy (herbicidal activity) ([6]; Dosage 80 g/ha): 90%; CYPES pre-emergence efficacy (herbicidal activity) ([13]; Dosage 80 g/ha): 80%; post-emergence efficacy ABUTH ([16]; 80 g/ha): 80%; post-emergence efficacy ABUTH ([16]; 320 g/ha): 80%; post-emergence efficacy SETVI ([23]; 320 g/ha): 80%; post-emergence efficacy VERPE ([18]; 80 g/ha): 80% |
